A short description of data set [1]: physical stability evaluation of solutions (microscope, drug crystals). The class given is physicochemical. Conditions: PEG 400, room temperature and 4° C. On the procedure:
The solutions then were allowed to cool to room temperature (RT). A portion of each solution was mixed with water (8 mg water per 100 mg solution) to mimic the water migration and retention processes occurring in a soft capsule. The solutions (with and without water) were stored at RT (room temperature) and at 4° C. for physical stability evaluation.

A short description of data set [2]: bioavailability of Compound A. Conditions: in vivo.

Each structure is given as a SMILES string.

For `CN1CC(=O)N2[C@H](c3ccc4c(c3)OCO4)c3[nH]c4ccccc4c3C[C@@H]2C1=O` (relative stereo) [Compound A, (6R-trans)-6-(1,3-benzodioxol-5-yl)-2,3,6,7,12,12a-hexahydro-2-methylpyrazino-[1′, 2′:1, ]pyrido[3,4-b]indole-1,4-dione], in data set [1], the “drug concentration at which PEG 400 solution formulation is physically stable with respect to drug crystallization” value is listed as at most 2.8%. For the same compound, the bioavailability result in data set [2] was “low and inconsistent bioavailability”.

The values above are taken from patent US6841167B1, “β-carboline pharmaceutical compositions” (Lilly Icos LLC., priority 1999, dated 2005).
